Where a name gives a salt, the structure may show the parent alone.
Assays:
Conditions in all cases: exposure time: 72 h
E28 [1] = patient-derived glioblastoma stem cells of classical subtype; assay: surviving fraction (nuclei count normalised to DMSO); higher = more cells surviving (less toxic)
E21 [2] = patient-derived glioblastoma stem cells of mesenchymal subtype; assay: as above
E13 [3] = patient-derived glioblastoma stem cells of classical subtype; assay: as above
E31 [4] = patient-derived glioblastoma stem cells of proneural subtype; assay: as above
FT3469 [5] = normal neural stem cell line; assay: as above
E34 [6] = patient-derived glioblastoma stem cells of proneural subtype; assay: as above
E57 [7] = patient-derived glioblastoma stem cells of mesenchymal subtype; assay: as above
E28 [8] = assay: phenotypic distance (Euclidean, principal components) from DMSO controls (arbitrary units); higher = stronger morphological change
E21 [9] = assay: as above
E13 [10] = assay: as above
E31 [11] = assay: as above
FT3469 [12] = assay: as above
E34 [13] = assay: as above
E57 [14] = assay: as above
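Wherever phenotypic distance (Euclidean, principal components) from DMSO controls is given: cell Painting imaging in 384-well plates, CellProfiler features reduced to at least 20 principal components, Euclidean distance versus same-plate DMSO vehicle wells (0.1% v/v), median over six images per well.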
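Wherever surviving fraction (nuclei count normalised to DMSO) is given: nuclei counted by high-content imaging of Hoechst-stained cells in laminin-coated 384-well plates, relative to 0.1% DMSO vehicle wells, with staurosporine as cell-death control.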

CN(C)C(=O)Oc1ccc[n+](C)c1 [Pyridostigmine iodide]
Conditions	phenotypic distance	surviving fraction
E13 [3], 4.1 nM	–	1.02
E13 [3], 12.3 nM	–	1.15
E13 [3], 37 nM	–	1.04
E13 [3], 111.1 nM	–	0.975
E13 [3], 333.3 nM	–	1.06
E13 [3], 1000 nM	–	1.03
E13 [3], 3000 nM	–	0.989
E13 [10], 4.1 nM	0.653	–
E13 [10], 12.3 nM	0.436	–
E13 [10], 37 nM	0.527	–
E13 [10], 111.1 nM	0.34	–
E13 [10], 333.3 nM	0.667	–
E13 [10], 1000 nM	0.894	–
E13 [10], 3000 nM	1.1	–
E21 [2], 4.1 nM	–	0.969
E21 [2], 12.3 nM	–	1.03
E21 [2], 37 nM	–	1.08
E21 [2], 111.1 nM	–	0.887
E21 [2], 333.3 nM	–	0.981
E21 [2], 1000 nM	–	0.99
E21 [2], 3000 nM	–	1.04
E21 [9], 4.1 nM	0.939	–
E21 [9], 12.3 nM	0.565	–
E21 [9], 37 nM	0.637	–
E21 [9], 111.1 nM	0.901	–
E21 [9], 333.3 nM	3.46	–
E21 [9], 1000 nM	1.09	–
E21 [9], 3000 nM	1.02	–
E28 [1], 4.1 nM	–	1.07
E28 [1], 12.3 nM	–	0.975
E28 [1], 37 nM	–	1.02
E28 [1], 111.1 nM	–	1.05
E28 [1], 333.3 nM	–	0.949
E28 [1], 1000 nM	–	1.18
E28 [1], 3000 nM	–	0.96
E28 [8], 4.1 nM	0.458	–
E28 [8], 12.3 nM	0.757	–
E28 [8], 37 nM	0.73	–
E28 [8], 111.1 nM	0.63	–
E28 [8], 333.3 nM	0.567	–
E28 [8], 1000 nM	0.651	–
E28 [8], 3000 nM	0.684	–
E31 [4], 4.1 nM	–	0.967
E31 [4], 12.3 nM	–	1.05
E31 [4], 37 nM	–	0.914
E31 [4], 111.1 nM	–	1.02
E31 [4], 333.3 nM	–	1.07
E31 [4], 1000 nM	–	0.944
E31 [4], 3000 nM	–	0.851
E31 [11], 4.1 nM	0.409	–
E31 [11], 12.3 nM	0.507	–
E31 [11], 37 nM	0.601	–
E31 [11], 111.1 nM	0.878	–
E31 [11], 333.3 nM	0.996	–
E31 [11], 1000 nM	2.91	–
E31 [11], 3000 nM	0.798	–
E34 [6], 4.1 nM	–	1.17
E34 [6], 12.3 nM	–	0.894
E34 [6], 37 nM	–	1.01
E34 [6], 111.1 nM	–	0.914
E34 [6], 333.3 nM	–	0.904
E34 [6], 1000 nM	–	1.05
E34 [6], 3000 nM	–	1.24
E34 [13], 4.1 nM	0.578	–
E34 [13], 12.3 nM	0.331	–
E34 [13], 37 nM	1.86	–
E34 [13], 111.1 nM	0.616	–
E34 [13], 333.3 nM	0.79	–
E34 [13], 1000 nM	0.731	–
E34 [13], 3000 nM	0.846	–
E57 [7], 4.1 nM	–	1.16
E57 [7], 12.3 nM	–	1.04
E57 [7], 37 nM	–	0.923
E57 [7], 111.1 nM	–	0.99
E57 [7], 333.3 nM	–	0.98
E57 [7], 1000 nM	–	1.01
E57 [7], 3000 nM	–	0.937
E57 [14], 4.1 nM	0.948	–
E57 [14], 12.3 nM	0.52	–
E57 [14], 37 nM	0.595	–
E57 [14], 111.1 nM	0.71	–
E57 [14], 333.3 nM	0.854	–
E57 [14], 1000 nM	0.982	–
E57 [14], 3000 nM	0.881	–
FT3469 [5], 4.1 nM	–	1.01
FT3469 [5], 12.3 nM	–	1.12
FT3469 [5], 37 nM	–	1.2
FT3469 [5], 111.1 nM	–	1.07
FT3469 [5], 333.3 nM	–	1.12
FT3469 [5], 1000 nM	–	1.06
FT3469 [5], 3000 nM	–	1.15
FT3469 [12], 4.1 nM	0.42	–
FT3469 [12], 12.3 nM	0.709	–
FT3469 [12], 37 nM	0.762	–
FT3469 [12], 111.1 nM	0.872	–
FT3469 [12], 333.3 nM	0.927	–
FT3469 [12], 1000 nM	0.794	–
FT3469 [12], 3000 nM	1.39	–

Cc1ncc(CO)c(CO)c1O [Pyridoxine hydrochloride]
Conditions	phenotypic distance	surviving fraction
E13 [3], 4.1 nM	–	0.907
E13 [3], 12.3 nM	–	0.973
E13 [3], 37 nM	–	0.968
E13 [3], 111.1 nM	–	1.04
E13 [3], 333.3 nM	–	1.02
E13 [3], 1000 nM	–	0.905
E13 [3], 3000 nM	–	1.08
E13 [10], 4.1 nM	1.83	–
E13 [10], 12.3 nM	0.627	–
E13 [10], 37 nM	0.476	–
E13 [10], 111.1 nM	0.757	–
E13 [10], 333.3 nM	0.677	–
E13 [10], 1000 nM	0.715	–
E13 [10], 3000 nM	1.55	–
E21 [2], 4.1 nM	–	0.9
E21 [2], 12.3 nM	–	1.04
E21 [2], 37 nM	–	1.02
E21 [2], 111.1 nM	–	1.03
E21 [2], 333.3 nM	–	0.92
E21 [2], 1000 nM	–	1.06
E21 [2], 3000 nM	–	1.03
E21 [9], 4.1 nM	0.627	–
E21 [9], 12.3 nM	0.496	–
E21 [9], 37 nM	0.428	–
E21 [9], 111.1 nM	0.899	–
E21 [9], 333.3 nM	0.724	–
E21 [9], 1000 nM	0.617	–
E21 [9], 3000 nM	0.536	–
E28 [1], 4.1 nM	–	0.967
E28 [1], 12.3 nM	–	1.04
E28 [1], 37 nM	–	0.991
E28 [1], 111.1 nM	–	0.922
E28 [1], 333.3 nM	–	0.975
E28 [1], 1000 nM	–	0.968
E28 [1], 3000 nM	–	1.09
E28 [8], 4.1 nM	0.428	–
E28 [8], 12.3 nM	0.769	–
E28 [8], 37 nM	0.765	–
E28 [8], 111.1 nM	0.622	–
E28 [8], 333.3 nM	0.82	–
E28 [8], 1000 nM	1.01	–
E28 [8], 3000 nM	0.741	–
E31 [4], 4.1 nM	–	0.944
E31 [4], 12.3 nM	–	1.04
E31 [4], 37 nM	–	1.03
E31 [4], 111.1 nM	–	1.1
E31 [4], 333.3 nM	–	1.03
E31 [4], 1000 nM	–	1.01
E31 [4], 3000 nM	–	0.903
E31 [11], 4.1 nM	1.57	–
E31 [11], 12.3 nM	0.82	–
E31 [11], 37 nM	0.958	–
E31 [11], 111.1 nM	1.06	–
E31 [11], 333.3 nM	0.654	–
E31 [11], 1000 nM	0.523	–
E31 [11], 3000 nM	0.738	–
E34 [6], 4.1 nM	–	0.949
E34 [6], 12.3 nM	–	0.918
E34 [6], 37 nM	–	1.19
E34 [6], 111.1 nM	–	1.07
E34 [6], 333.3 nM	–	0.943
E34 [6], 1000 nM	–	0.916
E34 [6], 3000 nM	–	1.06
E34 [13], 4.1 nM	1.15	–
E34 [13], 12.3 nM	0.917	–
E34 [13], 37 nM	0.991	–
E34 [13], 111.1 nM	1.16	–
E34 [13], 333.3 nM	0.742	–
E34 [13], 1000 nM	0.612	–
E34 [13], 3000 nM	0.936	–
E57 [7], 4.1 nM	–	1.03
E57 [7], 12.3 nM	–	0.99
E57 [7], 37 nM	–	1.01
E57 [7], 111.1 nM	–	0.965
E57 [7], 333.3 nM	–	1.07
E57 [7], 1000 nM	–	0.984
E57 [7], 3000 nM	–	0.981
E57 [14], 4.1 nM	1.25	–
E57 [14], 12.3 nM	1.12	–
E57 [14], 37 nM	0.554	–
E57 [14], 111.1 nM	0.42	–
E57 [14], 333.3 nM	0.699	–
E57 [14], 1000 nM	0.559	–
E57 [14], 3000 nM	0.776	–
FT3469 [5], 4.1 nM	–	0.987
FT3469 [5], 12.3 nM	–	0.951
FT3469 [5], 37 nM	–	0.972
FT3469 [5], 111.1 nM	–	0.985
FT3469 [5], 333.3 nM	–	1.05
FT3469 [5], 1000 nM	–	1.09
FT3469 [5], 3000 nM	–	0.987
FT3469 [12], 4.1 nM	0.887	–
FT3469 [12], 12.3 nM	0.632	–
FT3469 [12], 37 nM	0.988	–
FT3469 [12], 111.1 nM	0.539	–
FT3469 [12], 333.3 nM	4.03	–
FT3469 [12], 1000 nM	0.686	–
FT3469 [12], 3000 nM	0.525	–
